From patent publication US10682388B2, “Targeting of PELP1 in cancer therapy” (THE BOARD OF REGENTS OF THE UNIVERSITY OF TEXAS SYSTEM, priority 2014, dated 2020)
“Also recorded” adds a separate entry of the source.

How the values were obtained:
PELP1-G9a complex = target: T1, PELP1-G9a complex (Homo sapiens, UniProt Q8IZL8); experiment: In vitro peptide competition assay, G9a-GST on glutathione beads with purified PELP1; assay type: binding; settings: peptides 2, 5, 10 μM, 2 hours, FIGS. 2C, 7B, 9
T1 construct: purified bacterial, full-length PELP1; host or cells: bacteria (PELP1)
Protocol: FIGS. 2A-D. (FIG. 2A) Immunoprecipitation was performed on nuclear lysates obtained from ZRPELP1 cells grown in 5% DCC for 72 hours and treated with estradiol 10^−7 M for 12 hours. PELP1 was immunoprecipitated and western blotting was performed for PELP1 and G9a expression with IgG as the control. (FIG. 2B) Various fragments of PELP1 bound to glutathione beads were incubated with recombinant G9a for 2 hours. Beads were washed, run on an SDS-PAGE gel and immunoblotted for G9a expression. GST tag alone is shown as control. (FIG. 2C) Recombinant G9a-GST was bound to glutathione beads and incubated with purified PELP1 and peptides for 2 hours. Beads were washed and run on SDS-PAGE gel. (FIG. 2D) ZR75 cells were transfected with ERE-luciferase, PELP1 and/or G9a plasmids and treated with peptide for 24 hours and estradiol 10^−7 M for 12 hours. Relative luciferase activity is shown.
FIGS. 7A-E. (FIG. 7A) Bacterial purified PELP1 was incubated with biotin-tagged peptides bound to avidin beads for one hour. Beads were washed, run on SDS-PAGE gel and probed for PELP1 expression. Input of bacterial PELP1 is shown as control. (FIG. 7B) Recombinant G9a-GST was bound to glutathione beads and incubated with purified PELP1 and peptides for 2 hours. Beads were washed and run on SDS-PAGE gel. (+2 μM, ++5 μM, +++10 μM). (FIG. 7C) ZRGST and ZRPELP1GST cells were transfected in triplicate with TopFlash β-catenin reporter and treated with TAT or PIP1 (10 μM) for 24 hours. Relative luciferase activity is shown. (FIG. 7D) MCF7vec and MCF7PELP1 cells were treated with TAT or PIP1 (10 μM) and toxicity was measured by CytoTox-Flour Cytotoxicity Assay. (FIG. 7E) ZR75 and ZR75PELP1 cells were treated with TAT, PIP1 or PIP2 for 24 hours and immunoblotted for PELP1 and ERα expression with actin as the loading control.
FIG. 9. […]
Peptides were linked to EZ-Link NHS-Biotin (Thermo Scientific) per manutfacturer's protocol. […] Beads were washed 3× with IP buffer (20 mM HEPES pH 7.9, 20% glycerol, 0.1% triton-x, 100 mM KCl), eluted with SDS-dye, and PELP1 expression was determined by western blotting. […]

ZRPELP1 cells = experiment: Initial screen, proliferation assay of PELP1-overexpressing breast cancer cells; assay type: cell-based, Human; settings: peptide every 3 days, absorbance at 7 days, FIG. 1B
Protocol: FIGS. 1A-D. (FIG. 1A) Diagram for yeast two hybrid screen to identify PELP1 binding peptides. Four regions of PELP1 were tagged with the binding domain and a library of 10^6 random peptides (Clontech) were bound to an activation domain. The number of positive colonies per region of PELP1 are shown in the graph. (FIG. 1B) A proliferation assay was performed with […]1 cells plated in a 96 well plate, treated with peptide every 3 days and absorbance was measured at 7 days. (FIG. 1C) ZR75 were plated in a 6-well plate on coverslips in 8% RPMI and treated with 10 uM FITC labeled peptide for 30, 60, or 120 minutes. They were then fixed with pararformaldehyde, stained for PELP1 (red) and DAPI (blue), and imaged by confocal microscopy to monitor intracellular delivery. (FIG. 1D) ZR75 cells were starved of estrogen for 72 hours and treated with estradiol 10^-7 M for 12 hours. Nuclear lysate was incubated with biotin-tagged peptides bound to avidin beads for one hour. Beads were washed, run on SDS-PAGE gel and probed for PELP1 expression. Input of nuclear lysate is shown as control. Cell proliferation rates were measured by using MTT Cell Viability Assay in 96-well plates. Model cells were seeded in 96-well plates (1×10^3 cells/well) in DMEM or RPMI medium containing 10% serum. After an overnight incubation, cells were treated with varying concentrations of the peptides for 3-7 days and growth inhibition was determined by using traditional MTT assay (Sigma) following manufacturer's instructions.

[1] = system: MDA-MB-231 and MDA-MB-468; experiment: MTT proliferation assay, triple negative breast cancer cell lines; assay type: cell-based; settings: preliminary studies
Protocol: FIGS. 8A-C. (FIG. 8A) ZR75PELP1KD cells were treated in triplicate with TAT or PIP1 (10, 20, or 50 μM) every 3 days and proliferation was measured by MTT assay on day 7. (FIG. 8B) MCF7PELP1KD cells were treated in triplicate with TAT or PIP1 (10, 20, or 50 μM) every 3 days and proliferation was measured by MTT assay on day 7. (FIG. 8C) MDAMB231 and MDAMB468 cells were treated in triplicate with TAT or PIP1 (10 μM) every 3 days and proliferation was measured by MTT assay on day 7. Cell proliferation rates were measured by using MTT Cell Viability Assay in 96-well plates. Model cells were seeded in 96-well plates (1×10^3 cells/well) in DMEM or RPMI medium containing 10% serum. After an overnight incubation, cells were treated with varying concentrations of the peptides for 3-7 days and growth inhibition was determined by using traditional MTT assay (Sigma) following manufacturer's instructions.

[2] = system: T98G, LN229 and U251 glioma cells and patient-derived primary GBM cells; experiment: MTT proliferation assay, glioma cell lines and primary GBM cells; assay type: cell-based; settings: FIGS. 15A-D
Protocol: FIGS. 15A-D. PIPs inhibit proliferation of glioma cells. (FIGS. 15A-B) T98G, LN229 and U251 glioma cells were treated with vehicle or varying concentration of PIP1 or PIP3, and proliferation was measured by using the MTT assay. (FIGS. 15C-D) Patient-derived primary GBM cells were treated with PIP1 or PIP3 and proliferation was measured using the MTT assay. Cell proliferation rates were measured by using MTT Cell Viability Assay in 96-well plates. Model cells were seeded in 96-well plates (1×10^3 cells/well) in DMEM or RPMI medium containing 10% serum. After an overnight incubation, cells were treated with varying concentrations of the peptides for 3-7 days and growth inhibition was determined by using traditional MTT assay (Sigma) following manufacturer's instructions.

[3] = system: TNBC (MDA-MB-231 and MDA-MB-468) and ER-positive (ZR-75 and MCF-7) breast cancer cell lines; experiment: MTT proliferation assay of PIP3, TNBC and ER-positive breast cancer cell lines; assay type: cell-based; settings: 10 μM and dose response, FIGS. 13A-C
Protocol: FIGS. 13A-C. […] (FIG. 13A) Breast cancer cells were treated with vehicle or 10 μM PIP3 and proliferation was measured by using the MTT assay. (FIGS. 13B-C) Dose response curves for PIP3. Cell proliferation rates were measured by using MTT Cell Viability Assay in 96-well plates. Model cells were seeded in 96-well plates (1×10^3 cells/well) in DMEM or RPMI medium containing 10% serum. After an overnight incubation, cells were treated with varying concentrations of the peptides for 3-7 days and growth inhibition was determined by using traditional MTT assay (Sigma) following manufacturer's instructions.

[4] = system: MCF7-TamR and MCF7-LTLT cells; experiment: Therapy resistance assays, MTT; assay type: cell-based, Human; settings: MCF7-TamR and MCF7-LTLT, 10 μM, FIGS. 4D-E, 11
Protocol: (§1) FIGS. 4A-E. (FIG. 4A) ZR75vec, ZR75PELP1, MCF7vec and MCF7PELP1 cells were treated in triplicate with TAT, PIP1 or PIP1 deletions (Del1, Del2, Del3) at 10 uM every 3 days and proliferation was measured by MTT assay on day 7. (FIG. 4B) ZRPELP1 cells were transfected with ERE-luciferase and treated with TAT, PIP1, or PIP2 for 24 hours and with estradiol for 12 hours. Relative luciferase activity was measured in triplicate. (FIG. 4C) ZR75 cells were grown in 5% DCC media for 72 hours, treated with TAT or PIP1 every 3 days, and treated with estradiol 10^−7 M for 12 hours. Proliferation was measured in triplicate on day 7 by MTT assay at 595 nm. (FIG. 4D) MCF7-Letrozole resistant cells were grown in 5% DCC media for 72 hours, treated with TAT, PIP1 or PIP2 every 3 days, and letrozole or estradiol 10^−7 M for 12 hours. Proliferation was measured in triplicate on day 7 by MTT assay at 595 nm. (FIG. 4E) MCF7-Tamoxiefn resistant cells were grown in 5% DCC media for 72 hours, treated with TAT, PIP1 or PIP2 every 3 days, and tamoxifen or estradiol 10^−7 M for 12 hours. Proliferation was measured in triplicate on day 7 by MTT assay at 595 nm.
FIG. 11. Cell proliferation assay: letrozole-resistant MCF-7-LTLT cells and Tamoxifen resistant MCF7-Tam cells were treated with TAT, PIP1, or PIP2 (10 μM)+/− letrozole or Tamoxifen.
Tamoxifen (Tam) therapy resistant MCF7-TamR and letrozole resistant MCF7-LTLT cells were cultured in tamoxifen or letrozole (10^-7M) containing media in the presence or absence of peptides and proliferation was measured by MTT assay (Sigma) following manufacturer's instructions.

[5] = system: ERE-luciferase in ZRPELP1 cells; experiment: ERE-luciferase reporter gene assay in PELP1 overexpressing cells; assay type: cell-based, Human; settings: peptide 24 hours, estradiol 12 hours, compared to control TAT, FIGS. 4B, 10
Protocol: as §1
FIG. 10. ERE-luciferase assay. […]
Model cells were seeded in 6-well plates. […] Luciferase activity was measured by using the luciferase assay system (Promega, Madison, Wis.).

T1 sequence (Q8IZL8 2-1130, one chain of several): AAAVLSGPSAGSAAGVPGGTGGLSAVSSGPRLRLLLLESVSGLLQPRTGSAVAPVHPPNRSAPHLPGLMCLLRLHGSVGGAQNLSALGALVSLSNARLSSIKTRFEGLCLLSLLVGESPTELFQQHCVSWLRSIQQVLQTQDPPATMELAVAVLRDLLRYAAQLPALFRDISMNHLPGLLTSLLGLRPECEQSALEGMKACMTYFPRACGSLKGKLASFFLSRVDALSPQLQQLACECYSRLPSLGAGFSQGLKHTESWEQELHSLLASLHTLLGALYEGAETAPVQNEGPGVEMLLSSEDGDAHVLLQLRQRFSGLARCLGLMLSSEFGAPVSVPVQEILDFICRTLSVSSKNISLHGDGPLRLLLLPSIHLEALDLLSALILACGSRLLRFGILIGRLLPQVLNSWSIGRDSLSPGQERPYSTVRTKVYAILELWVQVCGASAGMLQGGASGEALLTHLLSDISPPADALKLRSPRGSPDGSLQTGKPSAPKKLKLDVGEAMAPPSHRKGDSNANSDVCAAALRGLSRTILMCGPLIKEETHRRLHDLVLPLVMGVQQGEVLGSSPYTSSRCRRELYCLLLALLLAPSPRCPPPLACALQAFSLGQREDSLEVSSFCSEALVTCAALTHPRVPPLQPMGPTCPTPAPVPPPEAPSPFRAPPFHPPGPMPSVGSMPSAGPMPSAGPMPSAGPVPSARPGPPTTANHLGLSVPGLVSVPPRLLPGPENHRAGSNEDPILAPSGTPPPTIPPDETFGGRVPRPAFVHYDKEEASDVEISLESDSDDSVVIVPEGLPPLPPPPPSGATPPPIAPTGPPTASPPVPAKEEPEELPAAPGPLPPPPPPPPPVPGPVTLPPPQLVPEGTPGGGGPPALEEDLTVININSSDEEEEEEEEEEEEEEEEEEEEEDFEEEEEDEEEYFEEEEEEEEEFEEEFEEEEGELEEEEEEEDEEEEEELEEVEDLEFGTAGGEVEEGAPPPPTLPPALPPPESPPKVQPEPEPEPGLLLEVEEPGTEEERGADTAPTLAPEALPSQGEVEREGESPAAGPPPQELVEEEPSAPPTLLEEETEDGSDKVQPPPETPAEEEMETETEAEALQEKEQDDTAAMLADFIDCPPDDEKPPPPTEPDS

GRKKRRQRRRGG [TAT, reference compound]
disruption of PELP1 interaction with G9a/EHMT2 (PELP1-G9a complex): no effect
PELP1-mediated breast cancer cell proliferation (ZRPELP1 cells): no significant effect

GRKKRRQRRRGGFKEWWRIDMVWLHRVRRNSY [PIP3]
activity on TNBC cells [1]: has activity in triple negative cells
concentration of potent activity on glioma proliferation [2]: 5 to 10 µM
proliferation of glioma cell lines and primary GBM cells ([2]; varying concentration): significantly reduced their proliferation in a dose-dependent manner
growth of TNBC and ER-positive breast cancer cell lines [3]: inhibited growth; also recorded: inhibits proliferation of breast cancer cells

GRKKRRQRRRGGIMGRGLCMRGVVRGRGRN [PIP2]
proliferation of therapy resistant cell lines [4]: inhibited the proliferation; also recorded: efficiently reduce the growth of therapy resistant cells
ERE activation (ERE-luciferase) [5]: significantly decreased ERE activation
disruption of PELP1 interaction with G9a/EHMT2 (PELP1-G9a complex): disrupted by the addition of either of the two peptides in a dose-dependent manner
PELP1-mediated breast cancer cell proliferation (ZRPELP1 cells): significantly inhibit PELP1-mediated proliferation
